Test results as given in the NIST ThermoML archive (doi:10.1021/je900799e).
Numbers after ± are expanded uncertainties.

Test: molar heat capacity at constant pressure
Details: Liquid, metal-bellows calorimeter

For `F/C=C/C(F)(F)F` [trans-1,3,3,3-tetrafluoropropene], the “molar heat capacity at constant pressure” value (310 K, 2000 kPa) was 165.36 ± 16 J/K/mol, the “molar heat capacity at constant pressure” value (310 K, 3000 kPa) was 160.8 ± 16 J/K/mol and the “molar heat capacity at constant pressure” value (310 K, 4000 kPa) was 157.38 ± 16 J/K/mol. For the same compound, the “molar heat capacity at constant pressure” value (310 K, 5000 kPa) was 155.1 ± 16 J/K/mol, the “molar heat capacity at constant pressure” value (320 K, 2000 kPa) was 168.78 ± 16 J/K/mol and the “molar heat capacity at constant pressure” value (320 K, 3000 kPa) was 164.22 ± 16 J/K/mol. The “molar heat capacity at constant pressure” value (320 K, 4000 kPa) was 160.8 ± 16 J/K/mol, the “molar heat capacity at constant pressure” value (320 K, 5000 kPa) was 158.52 ± 16 J/K/mol and the “molar heat capacity at constant pressure” value (330 K, 2000 kPa) was 175.62 ± 18 J/K/mol. For the same compound, the “molar heat capacity at constant pressure” value (330 K, 3000 kPa) was 169.92 ± 16 J/K/mol, the “molar heat capacity at constant pressure” value (330 K, 4000 kPa) was 166.5 ± 16 J/K/mol and the “molar heat capacity at constant pressure” value (330 K, 5000 kPa) was 161.94 ± 16 J/K/mol. For the same compound, the “molar heat capacity at constant pressure” value (340 K, 2000 kPa) was 188.17 ± 18 J/K/mol, the “molar heat capacity at constant pressure” value (340 K, 3000 kPa) was 179.05 ± 18 J/K/mol and the “molar heat capacity at constant pressure” value (340 K, 4000 kPa) was 169.92 ± 16 J/K/mol. For the same compound, the “molar heat capacity at constant pressure” value (340 K, 5000 kPa) was 164.22 ± 16 J/K/mol, the “molar heat capacity at constant pressure” value (350 K, 2000 kPa) was 206.42 ± 21 J/K/mol and the “molar heat capacity at constant pressure” value (350 K, 3000 kPa) was 192.73 ± 18 J/K/mol. The “molar heat capacity at constant pressure” value (350 K, 4000 kPa) was 182.47 ± 18 J/K/mol, the “molar heat capacity at constant pressure” value (350 K, 5000 kPa) was 174.48 ± 18 J/K/mol and the “molar heat capacity at constant pressure” value (360 K, 3000 kPa) was 214.4 ± 21 J/K/mol. For the same compound, the “molar heat capacity at constant pressure” value (360 K, 4000 kPa) was 195.01 ± 21 J/K/mol, the “molar heat capacity at constant pressure” value (360 K, 5000 kPa) was 183.61 ± 18 J/K/mol and the “molar heat capacity at constant pressure” value (370 K, 3000 kPa) was 272.56 ± 27 J/K/mol. The “molar heat capacity at constant pressure” value (370 K, 4000 kPa) was 224.66 ± 23 J/K/mol and the “molar heat capacity at constant pressure” value (370 K, 5000 kPa) was 204.13 ± 21 J/K/mol.
